Source: US5338684A, “Stable aqueous FK506 standards” (Abbott Laboratories, priority 1993, dated 1994)

What was measured:
[1] = assay type: physicochemical
Source text: The stability of the composition can be determined by measuring the decrease in the measured amount of FK506 in the aqueous composition with time. […] In a composition of the invention useful as a standard for a diagnostic assay, generally the amount of FK506 initially present in the aqueous composition maintained at a temperature of 37 degrees Celsius will decrease over a period of 7 days by less than 20 percent by weight, and typically by less than 5 percent by weight

[2] = assay type: physicochemical; remark: listed apart in the source
Source text: Whole blood has the undesirable characteristic of thickening at elevated temperatures. Thickened blood can be difficult or impossible to pipet which can make a blood matrix completely unsuitable as a standard for a diagnostic assay.
Whole blood (plus sufficient EDTA to prevent coagulation) was lysed by freeze-thaw cycles and diluted with saline so as to be at final saline concentrations of 10, 20 and 30 percent by volume. FK506 in methanol was spiked into the matrix to make standards and the stability was evaluated at 37 degrees Celsius as described above.

[3] = assay type: physicochemical, human
Procedure: This example illustrates the preparation of an aqueous composition of the invention utilizing whole human blood containing the anticoagulant, ethylenediamine tetraacetic acid (EDTA). It also illustrates a comparison of the stability of FK506 in the aqueous composition of the invention with the stability of FK506 in a synthetic blood matrix (prepared by adding hemoglobin to human serum) and with the stability of FK506 in plasma and serum
A synthetic blood matrix was prepared by adding hemoglobin (10 grams/deciliter) to human serum. A stock standard of FK506 in methanol (10 micrograms FK506/ml) was spiked into this synthetic matrix to provide two initial concentrations of 32.2 nanograms FK506/ml (ng/ml)(high) and 7.5 ng/ml (low). A composition of the invention was prepared by adding the stock standard of FK506 in methanol (10 micrograms FK506/ml) into human whole blood (containing sufficient EDTA to prevent coagulation ) to provide two initial concentrations of 47.1 ng/ml (high) and 9.3 ng/ml (low). The stability of these two different matrices was evaluated by placing the four different standards at 37 degrees Celsius and determining the concentration of FK506 present as a function of time.

[4] = assay type: physicochemical, human; remark: listed apart in the source
Source text: This example illustrates the utilization of human packed red blood cells (with EDTA as anticoagulant) and saline in an aqueous, FK506-containing composition of the invention. It also illustrates the enhanced stability of FK506 in this composition of the invention compared to the stability of FK506 in comparative serum and plasma compositions.
Human packed red blood cells (with sufficient EDTA added to prevent coagulation) were mixed in equal parts by volume with saline (0.9 percent by weight sodium chloride solution), human plasma or human serum. Three freeze-thaw cycles were done on each matrix combination to lyse the cells. The pH on each matrix was adjusted to pH 6.0 with 3 Molar (M) citric acid. FK506 standards were made in each matrix and stability at […] was evaluated as described above.

[5] = assay type: physicochemical, human; remark: listed apart in the source
Procedure: This example illustrates the utilization of blood cell fragments according to the invention to stabilize FK506 in an aqueous matrix. Human blood cells were lysed by sonication or by repetitive freeze-thaw cycles respectively. Lysis was judged complete by the absence of blood cells under microscopic examination. Except for the utilization of lysed human blood cells instead of whole blood cells, the FK506 standards were prepared in the same manner as in Example 1 above.

[6] = assay type: physicochemical, horse
Procedure: (§1) This example illustrates the suitability of non-human blood sources for a composition of the invention. In this example both sheep blood (non-lysed as in Example 1 above and containing the anti-coagulant citrate) and horse blood (lysed by freeze-thaw cycles as in Example 2 above and containing the anti-coagulant EDTA) were utilized. FK506 standards were made in each matrix and stability was evaluated at 37 degrees Celsius as described above.

[7] = test system: monoclonal antibody directed against FK506 (Fujisawa clone #1-60-46); test: Microparticle capture enzyme immunoassay (MEIA) for FK506, competitive with FK506-alkaline phosphatase conjugate; assay type: binding; details: pH 6.0
Procedure: In general an analyte such as FK506 is determined in an MEIA by quantifying the rate of fluorescence development when a fluorogenic substrate is converted by the action of an enzyme-labeled conjugate. MEIAs as run on the IMx® analyzer generally utilize a reagent pack containing microparticle reagent, an alkaline phosphatase conjugate, fluorogenic substrate and, optionally, a diluent buffer specific for the FK506 assay. Submicron microparticles coated with a capture molecule specific for FK506 being measured are used as the solid phase. […] The effective surface area of these polystyrene latex microparticles, which number in the millions, is several-fold greater than that of a 1/4 inch diameter polystyrene bead commonly used in other commercial immunoassays. Because of this large surface area and the very small diffusion distance between analyte and the capture molecules on the surface of the microparticles, the capture phase of the MEIA typically reaches equilibrium within several minutes, allowing excellent throughput.
Unlike homogeneous fluorescent polarization immunoassays, the heterogeneous MEIA requires a separation step. After incubation of the microparticles with specimen, the microparticles are separated from the reaction mixture by transferring it to an inert glass fiber matrix in the MEIA reaction cell. This glass fiber surface provides a precisely located mechanical support for the microparticles during the subsequent optical read phase of the assay. The microparticles and bound analyte adhere strongly to the glass fibers, while the remaining specimen components are washed through the pores of the matrix to an underlying absorbent blotter. Detection of the immune complex on the glass fiber matrix is accomplished using an alkaline phosphatase-labeled conjugate. Conjugate is either incubated with the specimen and microparticles in a typical one step IMx® MEIA or applied to the matrix after the initial wash step. It is contemplated that an MEIA for FK506 run on the IMx® analyzer can be configured either in a "sandwich" or competitive assay format. […]
In either configuration, the specifically bound alkaline phosphatase on the microparticles is detected by addition of a fluorogenic substrate, typically 4-methylumbelliferyl phosphate (4-MUP), to the matrix. […] The liberated 4-MU is detected by the IMx® MEIA optics assembly, a front surface fluorometer designed to detect fluorescence of low concentrations of 4-MU without interference by fluorescence of 4-MUP at 367 nanometers (nm). A system of lenses and optical filters focuses filtered light (365 nm wavelength) from a mercury arc lamp onto the surface of the matrix and focuses emitted fluorescence from 4-MU (448 nm wavelength) onto a photomultiplier tube. About 5% of the excitation light is detected by a photodiode, allowing normalization of the fluorescence data and generation of a control signal used by the lamp power supply to maintain the intensity of the excitation light within 5% over the useful life of the lamp. The instrument then uses linear regression analysis to convert the data from 8 successive determinations of 4-MU fluorescence to a rate, which rate is proportional to the concentration of alkaline phosphatase conjugate specifically bound to the microparticles, from which the concentration of FK506 in the sample can be determined. […]

[8] = assay type: physicochemical, sheep
Procedure: as §1

[9] = assay type: physicochemical; remark: listed apart in the source
Procedure: FK506 was spiked into plasma and serum and the stability at 37 degrees Celsius was evaluated as for human blood and the synthetic matrix above. The plasma contained sufficient EDTA as anti-coagulant to prevent coagulation.
Comparative plasma and serum matrices were prepared by adding a stock standard of FK506 in methanol (10 micrograms FK506/ml) to the plasma and serum matrices to provide two initial concentrations of 41.8 ng/ml (high) and 18.4 ng/ml (low) for the plasma and two initial concentrations of 44.9 ng/ml (high) and 22.4 ng/ml (low) for the serum. As for the human blood and synthetic matrix above, the stability of these two different matrices was evaluated by placing the four different standards at 37 degrees Celsius and determining the concentration of FK506 present as a function of time.

[10] = aqueous blood cell composition, 168 h

C=CC[C@@H]1/C=C(\C)C[C@H](C)C[C@H](OC)[C@H]2O[C@@](O)(C(=O)C(=O)N3CCCC[C@H]3C(=O)O[C@H](/C(C)=C/[C@@H]3CC[C@@H](O)[C@H](OC)C3)[C@H](C)[C@@H](O)CC1=O)[C@H](C)C[C@@H]2OC [FK506]
stability at acidic pH [1]: enhanced somewhat at acidic pH
stability in aqueous matrices [1]: unstable
decrease of the amount of FK506 initially present, generally [1, 10]: less than 20 percent by weight
decrease of the amount of FK506 initially present, typically [1, 10]: less than 5 percent by weight
stability in saline-diluted lysed blood [2]: good stability
stability in blood vs synthetic matrix [3]: much more stable in blood than in the synthetic matrix
stability in packed red cell matrices [4]: more stable in any of them relative to serum, plasma or synthetic blood matrices
most stable matrix ([4]; saline vs plasma or serum dilution, 45 degrees Celsius): the most stable matrix was blood diluted with saline
stability in lysed blood [5]: more stable at 45 degrees Celsius than FK506 standards in serum, plasma or synthetic blood at 37 degrees Celsius
stability in horse blood [6]: excellent stability
Fluorescent Rate ([7]; 10 ng/ml FK506 in lysed human whole blood): 288
Fluorescent Rate ([7]; 20 ng/ml FK506 in lysed human whole blood): 197
Fluorescent Rate ([7]; 30 ng/ml FK506 in lysed human whole blood): 150
Fluorescent Rate ([7]; 50 ng/ml FK506 in lysed human whole blood): 111
Fluorescent Rate ([7]; 80 ng/ml FK506 in lysed human whole blood): 79
stability in sheep blood [8]: excellent stability
stability in plasma [9]: very unstable in plasma and serum
stability in serum [9]: very unstable in plasma and serum
